Measured values as given in paper PMC8145144, “Transport of Dietary Anti-Inflammatory Peptide, γ-Glutamyl Valine (γ-EV), across the Intestinal Caco-2 Monolayer” (Nutrients, 2021).
“Also recorded” adds a separate entry of the source.

Legend:
Caco-2 monolayer cells = test: in vitro; type: in vitro ADME, human; conditions: Caco-2
Method: (§1) The route of transport of γ-EV across Caco-2 monolayer cells was determined using 1 mM γ-EV transported for 2 h, following the same protocol as mentioned in Section 2.4. However, in this case, four transport inhibitors were used prior to γ-EV addition in the apical layer, to elucidate the mechanism of transport. Theaflavin 3′-gallate (TF3′G) (20 μM), a cell tight-junction enhancer, was added to the EMEM growth medium 24 h before the experiment. Wortmannin (a transcytosis inhibitor, 1 μM), cytochalasin D (a cell tight-junction disruptor, 0.5 μg/mL), and Gly-Sar (PepT1 transporter inhibitor, 25 mM) were added 30 min before γ-EV addition in the HBSS buffer (pH 6.5). After the treatment was over, the apical and basal layers were collected, and the concentration of γ-EV was analyzed and represented via Papp. For this study, some of the replicate inserts were used for harvesting the Caco-2 cells for analyzing the tight-junction proteins via Western immunoblotting, while some of the inserts were used for visualizing the tight-junction proteins through immunofluorescence.
(§2) LC-MS/MS was used to detect the γ-EV content after the transport study. The instrument used was the Shimadzu LC system (Nexera X2, Columbia, MD, USA), interfaced with a Sciex QTRAP 6500+ mass spectrometer (Redwood City, CA, USA), equipped with a TurboIonSpray (TIS) electrospray ion source (ESI). […] The mobile phases and gradient used were as previously described. Analyst software (version 1.6.3, Redwood City, CA, USA) was used for the sample acquisition control and data analysis. The manufacturer’s recommendations were used for tuning and calibration of the SCIEX QTRAP 6500+ mass spectrometer. The parameters for the ESI operation were as follows: 5500 V ion spray voltage; 500 °C source temperature; ion source gas 1, gas 2, and curtain gas, as 50, 50, and 25, respectively; and collision gas, high. The multiple reaction monitoring (MRM) transitions and the compound settings were previously optimized and described in [11]. An external standard curve, containing different concentrations of the peptide (γ-EV diluted in water), was prepared for the absolute quantification of the peptide. The standards were run alongside the samples (γ-EV in HBSS buffer) in triplicate. The linear range of the standard curve was from 0.016 to 10 μM, with a linear regression slope R^2 of 1 with a CV of <8% for all the dilution points.

in vitro [1] = type: in vitro ADME, human; conditions: human
Method: as §1, §2

PepT1 = test: in vitro; type: in vitro ADME, human; conditions: human, Caco-2, Papp after Gly-Sar pretreatment
Method: as §1, §2

Caco-2 monolayer [2] = system: Caco-2 monolayer
Caco-2 cells [3] = test: MTT cell viability assay; type: cell-based, human
Method: (§3) A clear-bottom 96-well black plate (VWR, #29444-008) was seeded with Caco-2 cells (40,000 cells/well) and grown for 15 days in EMEM media (20% FBS and 1% Pen-Strep) to achieve differentiation of the cells. The MTT assay kit (Abcam, #ab211091) was used to test the cell-viability assay following the manufacturer’s guidelines, as described in the earlier study. For the time-course study, a concentration of 1 mM γ-EV was used for determining the cell toxicity, by incubating it on the Caco-2 cells for 2, 4, and 6 h. For the dose study, the cell toxicity of γ-EV was tested for different doses, such as 2.5, 3, 4, 5, and 10 mM, after incubating the peptide on the cells for 2 h. After the treatment period, the cell media was discarded and replaced with a mixture of 50 μL of the MTT reagent and 50 μL of serum-free EMEM media. After the incubation period of 3 h at 37 °C, the MTT-supplemented media was replaced with 150 μL of MTT solvent. Following that, the plates were incubated on an orbital shaker (200 rpm, 37 °C) (MaxQ 4450, Thermo Fischer Scientific, Waltham, MA, USA) for 15 min, in dark, after which the absorbance of the plate was read at 590 nm (Synergy H1 microplate reader, BioTek, Winooski, VT, USA). The background control readings were subtracted from each of the wells and the cell-viability percentage (%) was calculated using the formula cell viability % = (sample/control) × 100, where the control was cells with no γ-EV treatment, and the sample was the γ-EV treated cells.

MTT cell viability assay = type: cell-based, human; conditions: human, Caco-2 cells (differentiated, grown for 15 days), 10 mM, 2 h, read-out: survival rate (cell viability)
Method: as §3

in vitro [4] = conditions: human, Caco-2
Caco-2 monolayer [5] = system: Caco-2 monolayer; set-up: method as in PMID 32786865; conditions: 1 mM γ-EV across Caco-2 cells, previous study; cited from earlier work
Caco-2 cells [6] = conditions: cytochalasin D 0.5 μg/mL, across Caco-2 cells; cited from earlier work

Compound | decrease of Papp by Gly-Sar vs control (Caco-2 monolayer cells) [%] | Papp at 2 h, 1 mM (in vitro [1]; Caco-2, Papp after TF3′G pretreatment) [×10⁻⁶ cm/s] | Papp at 2 h, 1 mM (in vitro [1]; Caco-2, Papp after cytochalasin D pretreatment) [×10⁻⁶ cm/s] | Papp at 2 h, 1 mM (PepT1) [×10⁻⁶ cm/s] | Papp range (Caco-2 monolayer [2]) | change in rate of transport (Papp) vs 1 mM dose (Caco-2 monolayer [2]) | cytotoxicity (Caco-2 cells [3]; 1 mM, exposure 4 and 6 h) | cytotoxicity (Caco-2 cells [3]; 10 mM, 2 h) | cytotoxicity (Caco-2 cells [3]; concentrations up to 5 mM, 2 h) | viability at 2 h, 10 mM (MTT cell viability assay) [%] | Papp A→B at 2 h, 5 mM (in vitro [4]) [×10⁻⁶ cm/s] | Papp A→B at 4 h, 1 mM (in vitro [4]) [×10⁻⁶ cm/s] | Papp A→B at 6 h, 1 mM (in vitro [4]) [×10⁻⁶ cm/s] | Papp at 2 h, 1 mM (in vitro [4]) [×10⁻⁶ cm/s] | Papp at 2 h, 5 mM (in vitro [4]) [×10⁻⁶ cm/s] | apparent permeability coefficient (Papp) (Caco-2 monolayer [5]) [×10⁻⁶ cm/s] | increase of peptide transport by cytochalasin D (Caco-2 cells [6]) [%]
CC(C)[C@H](NC(=O)CC[C@H](N)C(=O)O)C(=O)O [γ-EV, γ-glutamyl valine] | 48 | 0.875 | 4.36 | 0.798 | 1.5–2.5 × 10^−6 | did not have a significant change | not toxic; also recorded: No cytotoxicity | cytotoxic | nontoxic; also recorded: not toxic; also recorded: not cytotoxic | 21 | 2.5 | 0.678 | 0.746 | 1.56 | 2.49 | 1.56 ± 0.7 | 
HLPLP |  |  |  |  |  |  |  |  |  |  |  |  |  |  |  |  | 65
